Measured values as given in US12038432B2, “Organoids related to immunotherapy and methods of preparing and using the same” (Wake Forest University Health Sciences, priority 2018, dated 2024).
“Also recorded” adds a separate entry of the source.

Tests used:
[1] = tested on: colorectal tumor-node organoids; experiment: Mitochondrial metabolism of colorectal patient tumor organoids with or without matched lymph node immune cells; format: cell-based, human; conditions: integrated colorectal tumor-node organoids; seen only when immune cells are present; FIG. 1A
Experimental: Drug screen output metrics: Drugs will be administered for 48 hours, after which efficacy will be determined as follows; specifically, viability of cells will be assessed by (LIVE/DEAD), number of viable cells alone, number of viable cells versus dead cells, mitochondrial metabolism (MTS), LDH quantification (positive in tumor cells), and IHC (colocalization of fluorescently labeled immune cells with apoptotic, proliferative, and tumor cell markers). […] This was not expected given the BRAF wild status of the patient. […] The alternative therapy was identified by PTO screen more than 4 weeks prior to genomic sequencing that verified a MEK mutation, thus qualifying the patient for trametinib.

[2] = tested on: low-grade appendiceal tumor-node organoids; experiment: LIVE/DEAD imaging of appendiceal tumor organoids with and without node cells; format: cell-based, human; conditions: FIG. 1B; for LIVE/DEAD imaging, drug effectiveness: appendiceal tumor organoids with and without node cells; for cell death (LIVE/DEAD staining): low-grade appendiceal tumor-node organoids
Experimental: (§1) Drug screen output metrics: Drugs will be administered for 48 hours, after which efficacy will be determined as follows; specifically, viability of cells will be assessed by (LIVE/DEAD), number of viable cells alone, number of viable cells versus dead cells, mitochondrial metabolism (MTS), LDH quantification (positive in tumor cells), and IHC (colocalization of fluorescently labeled immune cells with apoptotic, proliferative, and tumor cell markers).

[3] = tested on: melanoma; experiment: Clinical response of melanoma patients to treatment; format: in vivo, human; conditions: stage III and IV melanoma patients of Example 7
[4] = tested on: melanoma tumor organoid; experiment: Drug screen, cell viability of melanoma tumor organoid with or without lymph node cells (FIG. 5); format: cell-based, human; conditions: decrease observed only when the organoid included both tumor cells and lymph node cells
Experimental: Organoid-device integration: HA and gelatin/collagen components are mixed with cells, as well as a crosslinker and photoinitiator for photopolymerization in situ. Cells are added to the gel precursor preferably at a density of 20 million cells/mL or higher, after which the cell-gel mixture introduced to the microfluidic chambers sequentially and patterning is accomplished using a positive-tone photomask to define shape and location of constructs (FIG. 3B). For the proposed studies, each device will contain series of 2 chamber circuits in which one chamber will be formed a tumor organoid and in the other will be formed a lymph node organoid. Alternatively, both organoids can exist separately, but in the same chamber (FIG. 2). In another form factor, tumor cells and immune cells can be photopatterned into the device as adjacent regions, in which for the immune cells to successfully target the tumor cells, they are forced to recognize tumor cell antigens, activate, and migrate to the tumor region. (FIGS. 4A-4C). […]
Drug screen output metrics: Drug efficacy will be determined by: viability of cells (LIVE/DEAD), number of viable cells alone, number of viable cells versus dead cells, mitochondrial metabolism (MTS), LDH quantification (positive in tumor cells), and IHC (Annexin V vs. KI67-apoptotic vs. proliferative markers).

[5] = tested on: PTOs; experiment: Exposure of patient tumor organoids (PTOs) to immune checkpoint inhibitors, tolerance; format: cell-based; conditions: ~100 nM concentrations; unless immune cells are activated
Description: Potential immune checkpoint inhibitor treatment. […] Concentrations of these two widely-used PD-1 inhibitors and one widely-used CTLA-4 inhibitor will be derived from clinical treatment guidelines and scaled to the volume of the PTO.

[6] = tested on: 3D patient-specific mixed melanoma/node organoids; experiment: Personalized immunotherapy screening on mixed melanoma/node organoids (live/dead staining and metabolism assays); format: cell-based, human; conditions: fourth patient's mixed melanoma/node organoids; 72 hours
Description: Methods: Surgically obtained matched melanoma and lymph node biospecimens from the same patient were transferred to the laboratory, washed with saline, antibiotic, and red blood cell lysis buffer. Biospecimens were dissociated, and incorporated into an ECM-based hydrogel system and biofabricated into 3D patient-specific mixed melanoma/node organoids. Cells were not sorted for tumor, as to preserve tumor heterogeneity, including stroma and immune cell components. […] Quantification of live/dead staining and metabolism assays, recorded relative drug efficacy in killing melanoma cells for a particular patient. Light microscopy, IHC and next generation sequencing (NGS) were used to compare tumor melanoma cells with organoid melanoma cells.

[7] = tested on: PTOs derived from a melanoma patient (Non-Responder); experiment: LIVE/DEAD imaging of tumor organoids derived from a non-responder melanoma patient; format: cell-based, human; conditions: FIG. 1C
Experimental: as §1

Row | Substance | mitochondrial metabolism [1] | LIVE/DEAD imaging, drug effectiveness [2] | cell death (LIVE/DEAD staining) [2] | patient clinical response [3] | organoid viability, measured by overall metabolic activity [4] | effect on the PTOs [5] | melanoma killing [6] [%] | organoid response (LIVE/DEAD staining) [7] | organoid response (LIVE/DEAD staining) ([7]; listed as dabrafenib and trametinib)
1 | nivolumab | an increase in mitochondrial metabolism; also recorded: Increased metabolism | effective only when immune cell (lymph) population was incorporated | increases in cell death | clinically progressed | significant decrease | no negative effect | 50 |  | 
2 | pembrolizumab |  | effective only when immune cell (lymph) population was incorporated | increases in cell death |  | significant decrease | no negative effect |  | did not respond | 
3 | ipilimumab [ipilumimab] |  |  |  |  |  |  |  | did not respond | 
4 | dabrafenib and trametinib [dabrafenic/trametinib] |  |  |  |  |  |  |  | increased DEAD staining | did respond
